## CCc1ccc(-n2nnc3cc(F)c(-n4c(=O)cc(C(F)(F)F)[nH]c4=O)cc32)cc1 [Example 3, 3-[1-(4-ethylphenyl)-5-fluoro-1H-1,2,3-benzotriazol-6-yl]-6-(trifluoromethyl)-2,4(1H,3H)-pyrimidinedione]
  melting point: 160 to 164 °C

## COc1ccc(C)cc1-n1nnc2cc(F)c(-n3c(=O)cc(C(F)(F)F)[nH]c3=O)cc21 [Example 2, 3-[5-fluoro-1-(2-methoxy-5-methylphenyl)-1H-1,2,3-benzotriazol-6-yl]-6-(trifluoromethyl)-2,4(1H,3H)-pyrimidinedione]
  melting point: 145 to 150 °C
